Data from US12533428B2, “Multimodal fluorine-CY3/5/7-DOTA-hapten compositions, diagnostics, fluorescence guided surgery and radioimmunotherapy” (Memorial Sloan Kettering Cancer Center, priority 2019, dated 2026).

What was measured:
[1] = test system: GD2-expressing IMR32Luc neuroblastoma cells; assay: Cell binding with anti-tumor/anti-DOTA BsAb, FACS; type: cell-based
Method: The cell binding activity of [F]Cy3D (Compound 6) was assayed with an anti-tumor/anti-DOTA bispecific antibody (BsAb). To detect binding of Compound 6 to GD2-expressing IMR32Luc neuroblastoma cells using an anti-GD2/anti-DOTA BsAb or a control BsAb (anti-HER2/anti-DOTA), cells were incubated with 1 μg of BsAb or PBS, washed and then incubated with several versions of Compound 6: (1) Compound 6, (2) [^175Lu]Pre-Compound 6 where ^175Lu was added before a mock ^19F isotope exchange, (3) [^19F]Pre-[^175Lu]Compound 6, where a mock ^19F isotope exchange was done before ^175Lu was added, and (4) [^175Lu]-Compound 6 where ^175Lu was directly added to Compound 6 without isotope exchange. Cells were analyzed by FACS or fluorescent microscopy.

IMR32luc cells = assay: Cell binding with BsAb, fluorescent microscopy; type: cell-based; details: IMR32luc cells incubated with anti-GD2/anti-DOTA BsAb
Method: The cell binding of Compound 6 and [^175Lu]-Compound 6 variants was then studied using fluorescent microscopy. IMR32luc cells were incubated with Anti-GD2/Anti-DOTA BsAb, a control anti-DOTA BsAb or no BsAb, followed by incubation with Compound 6 or [^175Lu]-Compound 6 variants. […] Binding was not detected when a control anti-DOTA BsAb was added (FIG. 14) or no BsAb was added (FIG. 15).

[2] = test system: GPA33-expressing human colorectal cancer SW1222 subcutaneous xenograft; assay: Ex vivo biodistribution of anti-GPA33 pretargeted [^18F]CyD; type: in vivo, Athymic nude mice; details: 2 h p.i.
Method: (§1) In vivo pretargeting of [^18F]CyD for PET imaging of human colorectal cancer xenograft (SW1222 human carcinoma cell line). Athymic nude mice bearing the GPA33-expressing human colorectal cancer SW1222 subcutaneous xenograft were used as a model for anti-GPA33 DOTA-PRIT. The groups were intravenously (i.v.) injected with BsAb huA33-C825 (250 μg, 1.19 nmol), followed 24 h later with i.v. injection of dendron CA ([…], 2.76 nmol; (glycodendrimer-based CA α-thio-N-acetylgalactosamine-16-DOTA-Y^3; see WO2020014386)) and after an additional 4 h, i.v. injection of [^18F]CyD (1.295 MBq (35 μCi), 0.23 nmol). Non-invasive PET/CT imaging was performed using a preclinical Inveon PET/CT system at ˜1 h post-injection (p.i.) of [^18F]CyD (see FIG. 23), followed with ex vivo biodistribution assay of radioactivity.

[3] = test system: GPA33-expressing human colorectal cancer SW1222 subcutaneous xenograft; assay: PET/CT imaging of pretargeted [^18F]CyD; type: in vivo, Athymic nude mice; details: approximately 1 h after i.v. injection (1.295 MBq, 0.23 nmol), pretargeted tumor-bearing mice
Method: as §1

[4] = test system: GPA33-expressing SW1222 colon cancer cells; assay: Binding with anti-GPA33/anti-DOTA BsAb, FACS flow cytometry (MFI); type: cell-based, human
Method: Next [^175Lu]-Compound 6 binding to GPA33-expressing SW1222 colon cancer cells was investigated. SW1222 cells were incubated with 25, 2.5 or 0.25 pmol of anti-GPA33/Anti-DOTA BsAb, or a control (anti-GD2/anti-DOTA) BsAb, washed and mixed with 50, 5 or 0.5 pmol of [^175Lu]-Compound 6.

[5] = test system: subcutaneous GD2-expressing tumor (IMR32Luc); assay: ^18F-PET imaging of GD2-positive subcutaneous tumor; type: in vivo; details: IMR32Luc tumor mouse, anti-GD2/anti-DOTA BsAb 24 h and clearing agent 4 h before PET; image after 2 hours
Method: A pilot PET study using ([^175Lu][^18F]-Compound 6) was carried out. For that purpose, a mouse bearing a subcutaneous GD2-expressing tumor (IMR32Luc) was pretreated (24 hours pre PET) with an anti-GD2/anti-DOTA BsAb and followed with DOTA-dendrimer clearing agent (glycodendrimer-based CA α-thio-N-acetylgalactosamine-16-DOTA-Y^3; see WO2020014386) (4 hours before PET) and [^175Lu][^18F]-Compound 6. After 2 hours the image was collected by a PET scan. […] Moreover, the small size of [^175Lu][^18F]-Compound 6 reduced background activity dramatically in a short amount of time.

## CC1(C)C(/C=C/C=C2/N(CCCCCC(=O)Nc3ccc(CC4CN(CC(=O)O)CCN(CC(=O)O)CCN(CC(=O)O)CCN4CC(=O)O)cc3)c3ccc(S(=O)(=O)[O-])cc3C2(C)C)=[N+](CCCCCC(=O)NCC[N+](C)(C)C[B-](F)(F)F)c2ccc(S(=O)(=O)O)cc21 (centres unmarked) [Compound 6, [F]Cy3D]
[1]; IMR32Luc cells incubated with 1 μg anti-GD2/anti-DOTA BsAb
  Binding to cells (fluorescence, FACS): shows no fluorescence
[1]; IMR32Luc cells, negative controls: no BsAb or control BsAb (anti-HER2/anti-DOTA)
  Binding to cells (fluorescence, FACS): no binding
IMR32luc cells
  Binding to cells (fluorescent microscopy): did not show binding

## CC1(C)C(=C/C=C/C2=[N+](CCCCCC(=O)NCC[N+](C)(C)C[B-](F)(F)[18F])c3ccc(S(=O)(=O)[O-])cc3C2(C)C)N(CCCCCC(=O)Nc2ccc(CC3CN(CC(=O)[O-])CCN(CC(=O)[O-])CCN(CC(=O)[O-])CCN3CC(=O)[O-])cc2)c2ccc(S(=O)(=O)[O-])cc21.[175Lu+3] (centres unmarked) [[^18F]CyD]
[2]; SW1222-tumor bearing mice
  Bone uptake: 1.65±0.48 % ID/g
  Large intestine uptake: 8.41±2.62 % ID/g
[2]; n=3, SW1222-tumor bearing mice
  Blood uptake: 0.17±0.12 % ID/g
  Kidney uptake: 0.87±0.11 % ID/g
  Tumor Uptake: 5.14±1.24 % ID/g
[2]; tumor to blood
  T:NT for blood: 31±13
[2]; tumor to kidney
  T:NT for kidney: 6±1
[3]
  Activity in the tumor by PET/CT: high activity is present in the tumor

## CC1(C)C(=CC=CC2=[N+](CCCCCC(=O)NCC[N+](C)(C)C[B-](F)(F)F)c3ccc(S(=O)(=O)[O-])cc3C2(C)C)N(CCCCCC(=O)Nc2ccc(CC3CN(CC(=O)[O-])CCN(CC(=O)[O-])CCN(CC(=O)[O-])CCN3CC(=O)[O-])cc2)c2ccc(S(=O)(=O)[O-])cc21.[175Lu+3] (centres unmarked) [[^175Lu]-Compound 6, [F]Cy3D[^175Lu]]
[4]; SW1222 cells, 25, 2.5 or 0.25 pmol anti-GPA33/anti-DOTA BsAb, 50, 5 or 0.5 pmol probe
  Mean fluorescence (MFI) of binding: proportionate to the amount
[4]; SW1222 cells, control anti-GD2/anti-DOTA BsAb
  Binding to cells (FACS): no binding

## CC1(C)C(=CC=CC2=[N+](CCCCCC(=O)NCC[N+](C)(C)C[B-](F)(F)[18F])c3ccc(S(=O)(=O)[O-])cc3C2(C)C)N(CCCCCC(=O)Nc2ccc(CC3CN(CC(=O)[O-])CCN(CC(=O)[O-])CCN(CC(=O)[O-])CCN3CC(=O)[O-])cc2)c2ccc(S(=O)(=O)[O-])cc21.[175Lu+3] (centres unmarked) [[^175Lu][^18F]-Compound 6, [^18F]Cy3D[^175Lu]]
[5]
  Tumor targeting by PET scan: specifically targeted to the BsAb-treated tumor
